Results taken from US12492189B2, “Solid forms of an HIV capsid inhibitor” (Gilead Sciences, Inc., priority 2017, dated 2025).

How the values were obtained:
HIV-IIIb = test: Test A: Antiviral Assay in MT4 Cells; type: cell-based, HIV-1
Description: 1 mL Aliquots of MT4 cells were pre-infected for 3 hours at 37° C. with 25 μL of cell growth medium (mock-infected) or a fresh 1:250 dilution of an HIV-IIIb concentrated ABI stock (0.004 m.o.i.). Infected and uninfected cells were diluted in cell growth media and 35 μL (2000 cells) was added to each well of the assay plates.
Assay plates were then maintained in a humidified, 5% CO2 incubator at 37° C. After 5 days of incubation, 25 μL of 2× concentrated CellTiter-Glo™ Reagent (catalog #G7573, Promega Biosciences, Inc., Madison, WI) was added to each well of the assay plate. Cell lysis was carried out by incubating at room temperature for 10 minutes and then chemiluminescence was read using an Envision plate reader (PerkinElmer).

[1] = Test C: Pharmacokinetic analysis following intravenous administration to Sprague-Dawley rats; type: in vivo
Description: (§2) Pharmacokinetic Analysis Following Intravenous Administration to Sprague-Dawley Rats and Beagle Dogs and Cynomolgous Monkeys
All IV formulations were in solution.
(§3) Each rat IV dosing group consisted of 3 male SD rats. […] The animals were fasted overnight prior to dose administration and up to 4 hr after dosing. Each dog IV dosing group consisted of 3 male, naïve beagle dogs. At dosing, the animals weighed ˜10-12 kg. The animals were fasted overnight prior to dose administration and up to 2 hr after dosing.
(§4) For the IV infusion group, the test compound was administered by intravenous infusion over 30 minutes. The rate of infusion was adjusted according to the body weight of each animal to deliver a dose of 1 mg/kg at 2 mL/kg.
(§5) Serial venous blood samples (approximately 0.4 mL each for rat and 1.0 mL for dog) were taken at specified time points after dosing from each animal. The blood samples were collected into Vacutainer™ tubes (Becton-Disckinson Corp, New Jersey, USA) containing EDTA as the anti-coagulant and were immediately placed on wet ice pending centrifugation for plasma. Centrifugation began within 1 hour of collection. All samples were placed into 96-well tubes and maintained on dry ice prior to storage at approximately −70° C.
(§6) An LC/MS/MS method was used to measure the concentration of test compounds in plasma.
(§7) Non-compartmental pharmacokinetic analysis was performed on the plasma concentration-time data.

[2] = Test C: Pharmacokinetic analysis following intravenous administration to beagle dogs; type: in vivo
Description: as §2
All IV formulations were in solution.
as §3, §4, §5, §6, §7

Human Liver Hepatocytes = test: Test D: Metabolic Stability in Cultured Human Liver Hepatocytes; type: in vitro ADME
Description: Test D. Metabolic Stability in Cultured Human Liver Hepatocytes
The final hepatocyte concentration was 1 million cells/mL. The hepatocyte/compound reaction mixture was dissolved in InVitroGRO™ KHB buffer (catalog #Z99074, BioreclamationIVT, Inc., Baltimore, MD) at pH 7.4. The incubations were performed in duplicate. A cell free control and a positive control were included in the incubations. The incubations were carried out with gentle shaking in a 37° C. incubator under a humid atmosphere of 95% air/5% CO2 (v/v). Aliquots (100 mL) were removed after 0, 1, 3, and 6 hours and added to 200 mL quenching solution that comprised 0.1% (v/v) TFA in 5% water/95% acetonitrile (v/v). The samples were placed on a shaker for 10 min, followed by centrifugation at 3000 g for 30 min. The samples of the supernatant were analyzed on a Dionex HPLC/PerkinElmer Flow Scintillation Analyzer as described below.
The column was a Phenomenex Synergi fusion RP (150×4.6 mm, 4 mm) maintained at 32 degrees Celsius. Mobile Phase A consisted of 0.1% (v/v) TFA in 99% water/1% acetonitrile (v/v). Mobile Phase B consisted of 0.1% (v/v) TFA in 5% water/95% acetonitrile (v/v). The flow rate was 1 mL/min using a sample injection volume of 100 mL.
Metabolic stability was determined by measuring the change in relative abundance of metabolites and parent over time and calculating from it the rate of disappearance of the parent compound. The stability data was utilized to calculate predicted human hepatic clearance values according to methods known in the art.

[3] = Pharmacokinetic profile after subcutaneous dosing of formulations in dogs (Formulation Examples A-D); type: in vivo; settings: solution in 10% ethanol, 13% water, 6 mg/kg
Description: The suspension was administered to dogs subcutaneously at a dose of 6 mg/kg and the pharmacokinetic (PK) profile was determined.
The solution was administered to dogs subcutaneously at a dose of 6 mg/kg and the pharmacokinetic (PK) profile was determined.
Subjects were orally dosed with this formulation at 6 mg/kg. […] The solution was administered to dogs subcutaneously at a dose of 6 mg/kg and the pharmacokinetic (PK) profile was determined.

pKa of Compound 1 = type: physicochemical
Text: (§1) In solution, the two atropisomers coexist in the ratio of about 1:5 to 1:8 (Isomer A:Isomer B), depending on temperatures and pH.

[4] = Atropisomer equilibrium and interconversion in solution; type: physicochemical
Text: as §1

times longer in vivo terminal half-life in rat ([1]; relative to compound A) | times lower in vivo clearance in rat ([1]; relative to compound A) | times longer in vivo terminal half-life in rat ([1]; relative to compound B) | times lower in vivo clearance in rat ([1]; relative to compound B) | times longer in vivo terminal half-life in dog ([2]; relative to compound A) | times lower in vivo clearance in dog ([2]; relative to compound A) | times longer in vivo terminal half-life in dog ([2]; relative to compound B) | times lower in vivo clearance in dog ([2]; relative to compound B) | Predicted Human Hepatic Clearance (Human Liver Hepatocytes; calculated from stability in pooled cryopreserved human hepatocytes, […], up to 6 hours) [mL/min/kg] | times more stable in human hepatocytes (lower predicted hepatic clearance) (Human Liver Hepatocytes; relative to compound A) | times more stable in human hepatocytes (lower predicted hepatic clearance) (Human Liver Hepatocytes; relative to compound B) | plasma concentration of Compound 1 at day 28 ([3]; 77% PEG 200 (200 mg/mL) with 1.2 molar equivalent NaOH (in situ sodium salt), FIG. 29) | plasma concentration of Compound 1 at day 28 ([3]; 77% glycofurol (200 mg/mL) with 1.2 molar equivalent NaOH (in situ sodium salt), FIG. 30) | pKa (pKa of Compound 1; weak acid, at sulfonamide) | pKa (pKa of Compound 1; weak base, at pyridine) | half-life ([4]; in solution at 37° C., read-out: t½ of re-equilibration of separated atropisomers) [h] | rotational energy barrier ([4]; rotation along one of the C—C bonds (atropisomers)) | EC50 (HIV-IIIb; Human immunodeficiency virus 1, IIIB, MT4, 120 h) [nM] | SMILES | times more potent in HIV antiviral assay (HIV-IIIb; relative to compound A) | times more potent in HIV antiviral assay (HIV-IIIb; relative to compound B)
about 14 times | about 10 times | about 9 times | about 8.6 times | about 5 times | about 3 times | about 4 times | about 4 times | 0.17 | about 9 times | about 4 times | measurable | measurable | 6.7 | < 1 | 1 to 2 | about 24 kcal/mol |  | CC(C)(C#Cc1ccc(-c2ccc(Cl)c3c(NS(C)(=O)=O)nn(CC(F)(F)F)c23)c([C@H](Cc2cc(F)cc(F)c2)NC(=O)Cn2nc(C(F)(F)F)c3c2C(F)(F)[C@@H]2C[C@H]32)n1)S(C)(=O)=O [Compound 1, N—((S)-1-(3-(4-Chloro-3-(methylsulfonamido)-1-(2,2,2-trifluoroethyl)-1H-indazol-7-yl)-6-(3-methyl-3-(methylsulfonyl)but-1-yn-1-yl)pyridin-2-yl)-2-(3,5-difluorophenyl)ethyl)-2-((3bS,4aR)-5,5-difluoro-3-(trifluoromethyl)-3b,4,4a,5-tetrahydro-1H-cyclopropa[3,4]cyclopenta[1,2-c]pyrazol-1-yl)acetamide] | about 9 times | about 16 times
 |  |  |  |  |  |  |  |  |  |  |  |  |  |  |  |  | 2.99 | Cn1nc(NS(C)(=O)=O)c2c(Cl)ccc(-c3ccc(C#CC(C)(C)O)nc3[C@H](Cc3cc(F)cc(F)c3)NC(=O)Cn3nc(C(F)(F)F)c4c3C(F)(F)[C@@H]3C[C@H]43)c21 [Compound B, reference compound] |  | 
